What is called MIC90 is an inhibitory concentration at the 90% level, which refers to growth in some studies and to a panel of isolates in others.

Consider 6 compounds from ChEMBL document CHEMBL3425465, “Synthesis, antimalarial and antitubercular activities of meridianin derivatives” (Eur J Med Chem, 2015).

Series [1] can be described thus: Retention time of the compound by HPLC analysis. Format: physicochemical.
Series [2] deals with Plasmodium falciparum. Kind of series: Antiplasmodial activity against Plasmodium falciparum D6 infected in human RBC assessed as parasite growth inhibition measured as LDH activity after 72 hrs by plate reader analysis. The settings on record: Plasmodium falciparum, D6, 72 h. The class given is functional, organism-based.
Series [3] deals with Plasmodium falciparum. Kind of series: Antiplasmodial activity against Plasmodium falciparum W2 infected in human RBC assessed as parasite growth inhibition measured as LDH activity after 72 hrs by plate reader analysis. Format: functional, organism-based. The settings on record: Plasmodium falciparum, W2, 72 h.
A further series relates to SK-OV-3. The series is described as follows: Cytotoxicity against human SKOV3 cells assessed as cell growth inhibition after 48 hrs by neutral red assay. Format: cell-based. The settings on record: SK-OV-3, 48 h.
Series [4] in a line: Selectivity index, ratio of IC50 for African green monkey VERO cells to IC50 for Plasmodium falciparum D6.
For the next series, the system named is BT-549. The series is described as follows: Cytotoxicity against human BT549 cells assessed as cell growth inhibition after 48 hrs by neutral red assay. Format: cell-based. The settings on record: BT-549, 48 h.
A further series has as its system LLC-PK1. Kind of series: Cytotoxicity against pig LLC-PK1 cells assessed as cell growth inhibition after 48 hrs by neutral red assay. Format: cell-based. The settings on record: Sus scrofa, LLC-PK1, 48 h.
Series [5] can be described thus: Selectivity index, ratio of IC50 for African green monkey VERO cells to IC50 for Plasmodium falciparum W2.
A short description of series [6]: Selectivity index, ratio of IC50 for pig LLC-PK1 cells to IC50 for Plasmodium falciparum W2.
A further series relates to KB. Kind of series: Cytotoxicity against human KB cells assessed as cell growth inhibition after 48 hrs by neutral red assay. Format: cell-based.
In the next series the test system is SK-MEL. The series is described as follows: Cytotoxicity against human SK-MEL cells assessed as cell growth inhibition after 48 hrs by neutral red assay. The class given is cell-based.
Another series relates to Vero. The series is described as follows: Cytotoxicity against African green monkey Vero cells assessed as cell growth inhibition after 48 hrs by neutral red assay. The settings on record: Chlorocebus sabaeus. The class given is cell-based.
Series [7] can be described thus: Selectivity index, ratio of IC50 for pig LLC-PK1 cells to IC50 for Plasmodium falciparum D6.
In series [8] the test system is Mycobacterium tuberculosis. The series is described as follows: Antitubercular activity against Mycobacterium tuberculosis H37Rv assessed as […] inhibition after 7 days by broth microdilution assay. Format: functional. The settings on record: 168 h.

Each structure is given as a SMILES string. Converted amounts (≈) assume the structure as drawn.

Take `N#Cc1ccc(S(=O)(=O)n2cc(-c3ccnc(N)n3)c3ccccc32)cc1`: in [1], the Retention_time is 7.02 min. Also, the IC50 in the series on Plasmodium falciparum [2] (read-out: IC50) is 11 µM; in the series on Plasmodium falciparum [2] (read-out: pIC50 (converted)), 11 µM; with Plasmodium falciparum [3] (read-out: IC50), 8.98 µM; in the series with Plasmodium falciparum [3] (read-out: pIC50 (converted)) it was 8.97 µM; with SK-OV-3, above 66 µM; in the series on BT-549, above 66 µM. The IC50 in the series with LLC-PK1, in the series with KB, with SK-MEL and in the series with Vero was above 66 µM throughout. Besides, the “Ratio IC50” value in series [4] is recorded as above 6; in series [5] it was above 7.4; in series [6], above 7.4; in [7], above 6.
With `N#Cc1ccc(S(=O)(=O)n2cc(-c3ccnc(N)n3)c3cc(Br)ccc32)cc1`, the Retention_time in series [1] amounted to 7.09 min. Moreover, the IC50 in the series with Plasmodium falciparum [2] (read-out: IC50) was 10.3 µM; in the series on Plasmodium falciparum [2] (read-out: pIC50 (converted)) it was 10.3 µM; in the series with Plasmodium falciparum [3] (read-out: IC50), 5.2 µM; in the series with Plasmodium falciparum [3] (read-out: pIC50 (converted)), 5.2 µM; in the series on SK-OV-3, above 55 µM; with BT-549 it was above 55 µM. The IC50 in the series with LLC-PK1, with KB, in the series with SK-MEL and with Vero was above 55 µM each time. Further, the “Ratio IC50” value in series [4] is reported as above 5.3; in series [5], above 10.6; in [6] it was above 10.6; in series [7], above 5.3. The MIC90 in [8] was found to be 70.6 µM (≈ 32.1 µg/mL).
`Nc1nccc(-c2cn(S(=O)(=O)c3cccc(C(F)(F)F)c3)c3ccc(Br)cc23)n1` returned a Retention_time in [1] of 8.61 min. Moreover, the IC50 with Plasmodium falciparum [2] (read-out: IC50) was 9.3 µM; with Plasmodium falciparum [2] (read-out: pIC50 (converted)), 9.29 µM; in the series on Plasmodium falciparum [3] (read-out: IC50), 5.34 µM; with Plasmodium falciparum [3] (read-out: pIC50 (converted)), 5.35 µM; with SK-OV-3, above 50 µM; with BT-549, above 50 µM. Further, the IC50 with LLC-PK1, with KB, in the series on SK-MEL and in the series on Vero was above 50 µM in each case. Moreover, the “Ratio IC50” value is above 5.4 in series [4], above 9.4 in [5], above 9.4 in [6] and above 5.4 in series [7].
Take `Nc1nccc(-c2cn(S(=O)(=O)c3ccc(C(F)(F)F)cc3)c3ccc(Br)cc23)n1`: the Retention_time in [1] amounted to 9.54 min. Besides, the IC50 in the series with Plasmodium falciparum [2] (read-out: IC50) is 8.92 µM; with Plasmodium falciparum [2] (read-out: pIC50 (converted)), 8.91 µM; in the series on Plasmodium falciparum [3] (read-out: IC50), 9.41 µM; with Plasmodium falciparum [3] (read-out: pIC50 (converted)), 9.42 µM; in the series with SK-OV-3, above 50 µM; with BT-549, above 50 µM. For the same compound, the IC50 in the series with LLC-PK1, in the series on KB, with SK-MEL and in the series with Vero was above 50 µM in each case. Besides, the “Ratio IC50” value in [4] was above 5.6; in series [5], above 5.3; in series [6], above 5.3; in series [7], above 5.6.
As to `Nc1nccc(-c2cn(S(=O)(=O)c3ccc(C(F)(F)F)cc3[N+](=O)[O-])c3ccc(Br)cc23)n1`, in [1], the Retention_time is reported as 8.26 min. Besides, the IC50 is 2.56 µM in the series with Plasmodium falciparum [2] (read-out: IC50); 2.56 µM with Plasmodium falciparum [2] (read-out: pIC50 (converted)); 3.41 µM in the series with Plasmodium falciparum [3] (read-out: IC50); 3.41 µM with Plasmodium falciparum [3] (read-out: pIC50 (converted)); above 28 µM with SK-OV-3; above 46 µM with BT-549. Moreover, the IC50 with LLC-PK1, in the series with KB, in the series on SK-MEL and in the series on Vero was above 46 µM in each case. The “Ratio IC50” value in series [4] is above 18; in series [5], above 13.5; in series [6], above 13.5; in [7], above 18. The MIC90 in series [8] came out at 118 µM (≈ 64.2 µg/mL).
With `CC(=O)Nc1ccc(S(=O)(=O)n2cc(-c3ccnc(N)n3)c3cc(Br)ccc32)cc1`, the Retention_time in series [1] worked out at 6.95 min. For the same compound, the IC50 in the series with Plasmodium falciparum [2] (read-out: IC50) was 9.33 µM; in the series on Plasmodium falciparum [2] (read-out: pIC50 (converted)), 9.33 µM; with Plasmodium falciparum [3] (read-out: IC50), 9.14 µM; in the series on Plasmodium falciparum [3] (read-out: pIC50 (converted)), 9.14 µM; with SK-OV-3, above 51 µM; in the series with BT-549, above 51 µM. Further, the IC50 with LLC-PK1, with KB, in the series on SK-MEL and in the series on Vero was above 51 µM throughout. In addition, the “Ratio IC50” value in [4] is above 5.5; in series [5], above 5.6; in [6] it was above 5.6; in series [7], above 5.5.
